Experimental data published in publication PMC4357465, “Tool Compounds Robustly Increase Turnover of an Artificial Substrate by Glucocerebrosidase in Human Brain Lysates” (PLoS ONE, 2015).
“Also recorded” adds a separate entry of the source.

Key:
Assay type in all cases: biochemical
[1] = molecular target: T1, recombinant GBA2 (Homo sapiens, UniProt Q9HCG7); experiment: cell-free 4MUG assay with recombinant GBA2; conditions: dose response, within the concentrations tested
T1 construct: purchased Abcam ab163631
T1 sequence (Q9HCG7 1-927): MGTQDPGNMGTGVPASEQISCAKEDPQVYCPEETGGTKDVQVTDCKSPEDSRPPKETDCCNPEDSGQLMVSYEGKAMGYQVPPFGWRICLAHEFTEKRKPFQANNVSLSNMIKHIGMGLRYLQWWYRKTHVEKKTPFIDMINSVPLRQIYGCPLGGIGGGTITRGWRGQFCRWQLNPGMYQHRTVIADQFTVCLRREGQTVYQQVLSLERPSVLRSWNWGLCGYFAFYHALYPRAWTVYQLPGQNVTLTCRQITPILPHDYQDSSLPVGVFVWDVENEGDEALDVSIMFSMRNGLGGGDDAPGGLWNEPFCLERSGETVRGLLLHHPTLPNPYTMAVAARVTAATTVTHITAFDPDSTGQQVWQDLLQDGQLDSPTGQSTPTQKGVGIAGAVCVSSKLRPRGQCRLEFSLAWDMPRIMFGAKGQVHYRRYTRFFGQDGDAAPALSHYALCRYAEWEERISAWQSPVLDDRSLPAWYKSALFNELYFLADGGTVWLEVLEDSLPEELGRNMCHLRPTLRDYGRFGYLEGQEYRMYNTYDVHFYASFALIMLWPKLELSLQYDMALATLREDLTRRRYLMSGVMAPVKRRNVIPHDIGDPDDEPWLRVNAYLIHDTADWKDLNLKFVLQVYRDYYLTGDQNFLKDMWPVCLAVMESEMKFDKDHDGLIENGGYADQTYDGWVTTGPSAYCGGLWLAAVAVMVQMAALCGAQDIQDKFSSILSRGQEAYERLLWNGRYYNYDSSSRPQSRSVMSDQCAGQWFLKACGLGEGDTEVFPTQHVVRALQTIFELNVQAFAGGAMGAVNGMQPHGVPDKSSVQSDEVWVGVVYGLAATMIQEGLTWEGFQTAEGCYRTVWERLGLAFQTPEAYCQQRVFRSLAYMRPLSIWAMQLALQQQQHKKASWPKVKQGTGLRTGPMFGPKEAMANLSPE
Method: The assay buffer consisted of 44 mM Citric Acid, 111 mM Na2HPO4, pH 5.5, 0.1% Triton X-100. […] A 10-fold intermediate solution of compound serial dilution was prepared in an assay buffer; half log dilutions were used. In a black 384-well plate (ThermoFisher, 267461) we added 5 μl of enzyme solution and 1 μl of compounds when appropriate, and incubated for 30 minutes at room temperature. 2 mM solution of 4MUG was prepared in an assay buffer. To start the reaction, 4.5 μl/well of this solution was added to the enzyme plate and was incubated for 30 minutes at 37°C. To stop the reaction, a 1M glycine solution, adjusted to pH = 10 using 1M NaOH was used. The fluorescent signal was detected using the Envision Multilabel Plate Reader (Perkin Elmer) at excitation = 355nm and emission = 450nm.

[2] = molecular target: T2, GBA1 in mouse brain lysates (Mus musculus, UniProt P17439); experiment: GBA1 tissue assay, 4MUG turnover in mouse brain lysates; conditions: mouse brain lysate 10 μg, with sodium taurocholate
T2 construct: Mouse brain was obtained from 4–7 month old C57BL/6J mice; from tissue; host or cells: brain of C57BL/6J mice
T2 sequence (P17439 20-515): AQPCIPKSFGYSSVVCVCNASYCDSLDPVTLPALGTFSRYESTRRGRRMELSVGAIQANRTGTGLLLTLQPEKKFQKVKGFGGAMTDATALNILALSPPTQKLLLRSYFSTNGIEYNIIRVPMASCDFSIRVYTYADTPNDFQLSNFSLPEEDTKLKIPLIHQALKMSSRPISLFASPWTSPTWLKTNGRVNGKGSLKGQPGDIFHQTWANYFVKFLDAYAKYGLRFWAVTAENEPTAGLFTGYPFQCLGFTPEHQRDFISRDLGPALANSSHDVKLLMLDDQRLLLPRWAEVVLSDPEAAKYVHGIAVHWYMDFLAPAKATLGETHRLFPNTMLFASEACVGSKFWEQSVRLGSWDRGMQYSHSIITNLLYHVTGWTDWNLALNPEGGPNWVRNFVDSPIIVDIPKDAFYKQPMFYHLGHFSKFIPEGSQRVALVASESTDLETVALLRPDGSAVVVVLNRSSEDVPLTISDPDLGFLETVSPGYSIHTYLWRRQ
Method: (§1) Human cortex was acquired from brain banks (Tissue Solutions: http://www.tissue-solutions.com; Proteogenex: http://www.proteogenex.com). Human cortex samples were obtained from deceased aged Caucasian subjects without any diagnosis of neurodegenerative disorders. Mouse brain was obtained from 4–7 month old C57BL/6J mice. All mouse experiments were performed in accordance with the specifications of both the National Institutes of Health Guide for the Care and Use of Laboratory Animals, studies were approved by Pfizer’s Internal Animal Care and Use Committee (IACUC). […] Samples were then centrifuged at 20,000g for 15 minutes at 4°C. Supernatant was collected, and used for activity assays and Western blots. Protein concentration was determined using the Pierce BCA protein assay kit. Tissue lysates and pellets were stored at -80°C until use. For enzymatic activity assays, lysates were subjected only to one free-thaw cycle. Independent replicates were obtained using brain lysates from either different human subjects or different mice. […] Brain tissue lysates were diluted to 0.4 μg/ μl of protein in the same homogenization buffer, as described above. 25 μl of diluted lysate was added to the plate (Costar, 7200567). Lysates were then incubated on ice in the presence or absence of a compound for 30 minutes. 100 μl of assay buffer was then added to the plate. The same assay buffer was used as in the cell free/recombinant experiments and processed as described above.

[3] = system: GBA1 in mouse brain lysates; experiment: as above; conditions: mouse brain lysate 10 μg, without sodium taurocholate
Method: as §1

O[C@H]1[C@H](O)[C@@H](O)[C@@H]2O[C@@H]2[C@@H]1O [CBE]
effect on activity of recombinant GBA2 [1]: did not inhibit; also recorded: does not alter activity
% inhibition: + NaTc ([2]; 1mM): 82% ± 1%
% inhibition: - NaTc ([3]; 1mM): 32% ± 4%

OC[C@H]1CNC[C@@H](O)[C@@H]1O [Isofagomine, isofagomine]
effect on activity of recombinant GBA2 [1]: almost no effect
effect on activity of recombinant GBA2 ([1]; listed as isofagomine): Minimal effect
inhibition at 1 µM ([2]; 1 μM, read-out: % inhibition: + NaTc): 82%
% inhibition: - NaTc ([3]; 1 μM): 21% ± 3%
